The values below come from PMC4740413, “Multi-Drug Resistance Transporters and a Mechanism-Based Strategy for Assessing Risks of Pesticide Combinations to Honey Bees” (PLoS ONE, 2016).

Like-named read-outs stand apart in the source and are kept apart here.

The test system of series [1] is honey bees. The conditions noted are these: for Mortality (SE) 1 μg/ml IVM and 1mM Inhibitor: 1 mM inhibitor fed 24 h, then 1 mM inhibitor + 1 μg/ml ivermectin, proportion of bees dead at 24 h; for Mortality (SE), inhibitor-only control: 1 mM inhibitor without ivermectin, proportion of bees dead. How it is done:
Apis mellifera were obtained from hives maintained on the University of Maryland farm in Beltsville, MD. Hives were maintained by standard bee keeping practices, and kept free of in-hive medications. Brood frames were taken from hives and emerging bees were collected daily into 207 ml cages of 15–20 bees and fed 30% sucrose w/v solution. Bees used in bioassays were 3–7 days post-eclosion.
Mortality was recorded 24 h after ivermectin exposure for 20–28 replicate cages of bees with approximately 15 bees in each cage. No-inhibitor controls (15 cages) were included in each assay. […] Mortality rates for each concentration of ivermectin were estimated by averaging the mortality of approximately 15 bees contained in each of 4 replicate cages. Similarly, to measure changes in sensitivity to ivermectin at varying dosages of the inhibitors, 4–12 replicate cages of bees (fewer at extreme dosages, more at intermediates) were fed a series of concentrations of each inhibitor (0, 0.03, 0.06, 0.125, 0.25, 0.5, 1.0, 2.0 mM) for 24 h, then fed a combination of the same inhibitor dose and 1μg/ml ivermectin solution.
Mortality was estimated as the proportion of bees within a cage that were dead at 24 or 48 h after treatment with ivermectin. Comparisons of mean mortality among treatments were tested using t-tests. LC50s of ivermectin with inhibitors were estimated using the ProcProbit procedure in SAS (V. 9.2).

In series [2] the test system is honey bees. Kind of series: Acetamiprid assay: honey bee mortality after acetamiprid with or without inhibitors. As to conditions: for Mean mortality, acetamiprid with inhibitor: 1 mM inhibitor + 0.1 μg/μl acetamiprid; for Mean mortality, inhibitor only: 1 mM inhibitor without insecticide, 3 replicate cages.

Consider `CC[C@H](C)[C@H]1O[C@]2(CC[C@@H]1C)C[C@@H]1C[C@@H](C/C=C(\C)[C@@H](O[C@H]3C[C@H](OC)[C@@H](O[C@H]4C[C@H](OC)[C@@H](O)[C@H](C)O4)[C@H](C)O3)[C@@H](C)/C=C/C=C3\CO[C@@H]4[C@H](O)C(C)=C[C@@H](C(=O)O1)[C@]34O)O2` [Ivermectin (IVM), Ivermectin], for which, in the series with honey bees [1] (1 mM inhibitor), the “Synergism Ratio (LC50 relative to IVM)” value is given as 1.00. In addition, the LC50 of ivermectin in the series with honey bees [1] (ivermectin alone in syrup, 24 h) came to 1.57 µg/mL.
Take `C/C(=N\C#N)N(C)Cc1ccc(Cl)nc1` [acetamiprid]: the “Mean mortality, acetamiprid alone” value in the series on honey bees [2] (0.1 μg/μl acetamiprid, 24 h) is on record as 0.25.
For the molecule `O=c1c(O)c(-c2ccc(O)c(O)c2)oc2cc(O)cc(O)c12` [Quercetin, quercetin], in the series on honey bees [2] (24 h), the “Mean mortality, acetamiprid with inhibitor” value is recorded as 0.97. Moreover, the “Mean mortality, inhibitor only” value with honey bees [2] came out at 0.07. Also, in the series on honey bees [1], the “Mortality (SE) 1 μg/ml IVM and 1mM Inhibitor” value is listed as 0.54; the “Mortality (SE), inhibitor-only control” value is given as 0.02 (0.02). In addition, the “Mortality (SE), inhibitor-only control” value with honey bees [1] (listed as quercetin) came out at 0.02.
Take `CO[C@@H]1[C@H](OC(=O)/C=C/C=C/C=C/C=C/C(=O)O)CC[C@]2(CO2)[C@H]1[C@@]1(C)O[C@@H]1CC=C(C)C` [Fumagillin, fumagillin]: the “Mean mortality, acetamiprid with inhibitor” value in the series on honey bees [2] (24 h) was found to be 0.80. In addition, the “Mean mortality, inhibitor only” value in the series on honey bees [2] is listed as 0.01. Further, the “Low inhibitor dosage that increases sensitivity of bees to ivermectin” value with honey bees [1] (1 μg/ml ivermectin, 24 h (Fig 2)) is 0.03 mM. Moreover, in the series on honey bees [1], the “Mortality (SE) 1 μg/ml IVM and 1mM Inhibitor” value came to 0.47; the “Mortality (SE), inhibitor-only control” value was 0.01 (0.01). Moreover, the “Mortality (SE), inhibitor-only control” value in the series with honey bees [1] (listed as fumagillin) stood at 0.01.
